From US9278942B2, “Non-steroidal compounds as androgen receptor modulators” (FLX Discoveries Oy, priority 2011, dated 2016)
Where two headings read alike, the source gives them in different places.

Molecular target: T1, human AR (Homo sapiens, UniProt P10275)
T1 construct: expressed in transfected cells; host or cells: COS-1
T1 sequence (P10275 1-920): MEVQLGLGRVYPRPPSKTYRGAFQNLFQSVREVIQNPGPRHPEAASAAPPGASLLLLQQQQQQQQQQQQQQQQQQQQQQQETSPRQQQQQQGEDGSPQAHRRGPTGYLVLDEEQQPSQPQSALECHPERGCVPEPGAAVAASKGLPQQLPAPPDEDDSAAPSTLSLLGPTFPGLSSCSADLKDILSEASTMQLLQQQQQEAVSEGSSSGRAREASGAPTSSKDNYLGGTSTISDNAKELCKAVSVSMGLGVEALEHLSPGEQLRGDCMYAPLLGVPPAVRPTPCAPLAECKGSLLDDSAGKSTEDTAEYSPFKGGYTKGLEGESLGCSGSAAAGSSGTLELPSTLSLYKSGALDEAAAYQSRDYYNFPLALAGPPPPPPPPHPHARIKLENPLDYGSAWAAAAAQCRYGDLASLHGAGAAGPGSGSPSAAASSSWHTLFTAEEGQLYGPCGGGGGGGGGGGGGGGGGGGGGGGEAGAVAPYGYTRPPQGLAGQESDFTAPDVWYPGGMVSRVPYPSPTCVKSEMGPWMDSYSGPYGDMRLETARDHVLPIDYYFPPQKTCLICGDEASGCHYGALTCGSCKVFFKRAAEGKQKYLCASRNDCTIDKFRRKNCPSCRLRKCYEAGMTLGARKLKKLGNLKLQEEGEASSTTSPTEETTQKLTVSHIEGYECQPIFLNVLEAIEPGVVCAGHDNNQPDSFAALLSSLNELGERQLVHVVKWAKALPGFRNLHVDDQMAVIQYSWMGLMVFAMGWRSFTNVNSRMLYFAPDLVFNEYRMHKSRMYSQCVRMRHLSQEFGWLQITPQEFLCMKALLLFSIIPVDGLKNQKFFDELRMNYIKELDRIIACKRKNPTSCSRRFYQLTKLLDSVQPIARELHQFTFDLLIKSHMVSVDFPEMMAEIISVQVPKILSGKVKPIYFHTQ
Assay: Competitive AR binding assay against [3H]-R1881 in transiently transfected COS-1 cells
Conditions: compound 13.4 μM, [3H]-R1881 1.34 nM, complete inhibition equals 100%, read-out: Inhibition of [3H]-R1881 binding at 1.34 nM ± S.D.
Procedure, shortened: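 COS-1 cells transfected 24 h with human AR vector, then after 36 h exposed 2 h at 37° C to compound at 10000-fold molar excess over 1.34 nM [3H]-R1881. Cell-bound radioactivity counted in triplicate; result given as % inhibition of labelled R1881 binding.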

inhibition at 13.4 µM (Table 1): 91.1 ± 2.2%
inhibition at 13.4 µM (Table 2): 94.8 ± 0.8%
inhibition at 13.4 µM (Table 3): 95.2 ± 2.9%
SMILES: CC(C)(O)C(=O)Nc1ccc([N+](=O)[O-])c(C(F)(F)F)c1 [Hydroxyflutamide, reference compound]
